# Patent US20220008402A1, “INCREASED E-CADHERIN EXPRESSION OR ACTIVITY FOR THE TREATMENT OF INFLAMMATORY DISEASES” (The Cleveland Clinic Foundation, priority 2020, published 2022)
# Entries after “also recorded” stand apart in the source; their conditions may differ.
# Experiments:
# Assay type in all cases: cell-based, human
# T84 cell monolayers [1] = assay: Cytokine (TNFα/IFNγ)-induced disruption of the epithelial barrier (TEER, FITC-dextran flux); conditions: 10 μM pretreatment 24 h, then TNFα 10 ng/ml + IFNγ 50 ng/ml, 48 h
# Protocol: (§1) Confluent T84 cell monolayers were pretreated with either vehicle, or ECU (10 μM) for 24 h. Afterwards, cells were exposed to a combination of TNFα (10 ng/ml) and IFNγ (50 ng/ml) with and without ECU. (A) TEER was measured at the indicated times. (B) FITC-dextran flux was examined after 48 h incubation with cytokines. Data is presented as mean ±SE (n=3); ***P<0.001.
# as §1, with “ML327” for “ECU”, “hours.” for “h.”, “ML327.” for “ECU.”, “(n=3); **P<0.05,” for “(n=3);”
# (§2) Transepithelial electrical resistance (TEER) of cultured T84, HT-29 and SK-C015 intestinal epithelial cell monolayers was measured using an EVOMX voltohmmeter (World Precision Instruments, Sarasota, Fla.). Cells were plated on collagen-coated transwell filters (pore size 3 μm, Thermo-Fisher). The resistance of cell-free collagen-coated filters was subtracted from each experimental point. An in vitro dextran flux assay was performed by a following commonly-used protocol. Intestinal epithelial cell monolayers growing on transwell filters were apically exposed to 1 mg/ml of FITC-labeled dextran (4,000 Da) in HEPES-buffered Hanks balanced salt solution (HBSS). After 120 min of incubation, HBSS samples were collected from the lower chamber, and FITC fluorescence intensity was measured using a Victor^3 V plate reader (Perkin Elmer, Waltham, Mass.) with excitation and emission wavelengths 485 and 544 nm, respectively. After subtracting the fluorescence of dextran-free HBSS the amount of FITC dextran translocated across the epithelial cell monolayer was calculated based on a calibration curve using Prism 5 software (GraphPad, La Jolla, Calif.).
# A combination of two cytokines were selected: tumor necrosis factor alpha (TNFα, 10 ng/ml) and interferon-gamma (IFNγ, 50 ng/ml), which are known to compromise barrier integrity and trigger apical junction disassembly in cultured epithelial cell monolayers and intestinal mucosa in mice. Indeed, 48 hour incubation of well-differentiated T84 cell monolayers with TNFα and IFNγ caused a dramatic decrease in TEER (FIGS. 3A, 4A) and increase in transepithelial dextran flux (FIGS. 3B, 4B), which indicates the increase in barrier permeability. […] Next, it was examined if ECU protects epithelial adherens junctions (AJ) and tight junctions (TJ) from cytokine-induced disassembly. Immunofluorescence labeling of a specific AJ marker, E-cadherin, and a TJ marker, ZO-1, was used to visualize structure of different junctional complexes. […]
# T84 cell monolayers [2] = assay: Immunoblotting of signaling molecules after multiple wounding; conditions: 10 μM pretreatment 24 h; lysates 12 and 24 h post-wounding
# Protocol: Confluent T84 cell monolayers were pretreated with either vehicle, ECU (10 μM), or ML327 (10 μM), for 24 h, and were subjected to multiple wounding. Total cell lysates were collected at 12 and 24 h post-wounding, and the expression of different signaling molecules was determined by immunoblotting. Representative immunoblots (A) and densitometric quantification of protein band intensities from three independent experiments (B) are shown. Data are presented as a mean ±SE (n=3); *p<0.05; **p<0.01.
# To prepare total cell lysates, epithelial cell monolayers were scraped and homogenized using a Dounce homogenizer in RIPA buffer (20 mM Tris, 50 mM NaCl, 2 mM EDTA, 2 mM EGTA, 1% sodium deoxycholate, 1% Triton X-100 (TX-100), and 0.1% SDS, pH 7.4) containing protease inhibitor cocktail and phosphatase inhibitor cocktails 2 and 3 (Sigma-Aldrich). The obtained total cell lysates were cleared by centrifugation (20 min at 14,000×g), diluted with 2×SDS sample loading buffer and boiled. SDS-polyacrylamide gel electrophoresis was conducted using a standard protocol with equal amounts of total protein (10 or 20 μg) loaded per each lane. The separated proteins were transferred to nitrocellulose membranes and the membranes were blocked with 5% non-fat milk. […]
# [3] = tested on: HT-29 cF8 cell monolayers; assay: Epithelial barrier permeability in vitro (TEER, FITC-dextran flux), steady state; conditions: 10 μM
# Protocol: (§3) FIG. 1: E-cadherin-enhancing drugs decrease ionic permeability of model colonic epithelial cell monolayers. Confluent T84 (A), HT-29cF8 (B) and SK-0015 (C) cell monolayers were treated for indicated times with either vehicle, E-cadherin upregulator (ECU, 10 μM), or ML327 (10 μM). Transepithelial electrical resistance (TEER) of the cell monolayers was measured before and during the drug treatment. Data is presented as mean ±SE (n=3); *P<0.05.
# (§4) FIG. 2: E-cadherin-enhancing drugs decrease colonic epithelial permeability to large molecules. Confluent T84 (A), HT-29cF8 (B) and SK-C015 (C) cell monolayers were treated with either vehicle, ECU, or ML327, as described in the FIG. 1 legend. Trans-monolayer flux of FITC-dextran was determined at the end of the drug treatment. Data is presented as mean ±SE (n=3); **P<0.05 ***P<0.01.
# as §2
# (§5) One set of experiments examined the effects of E-cadherin upregulator (ECU) and ML327 on the barrier properties of normal model intestinal epithelial cell monolayers. Three different human colonic epithelial cell lines, namely, T84, SK-0015 and HT-29 cF8 cells, were used. Cells were plated on collagen-coated transwell filters and allowed to reach confluency and differentiate for 5-7 days after plating. Thereafter, cell monolayers were exposed to either ECU (10 μM), ML327 (10 μM) or vehicle (DMSO). Transepithelial electrical resistance (TEER) was measured before and at different times after addition of E-cadherin-enhancing drugs. A transepithelial flux of FITC-dextran was examined at the end of the drug exposure to evaluate epithelial permeability to large uncharged molecules.
# T84 cell monolayers [4] = assay: as above; conditions: 10 μM
# Protocol: as §3, §4, §2, §5
# SK-0015 cell monolayers = assay: as above; conditions: 10 μM
# Protocol: as §3, §4, §2, §5
# [5] = at the end of the drug exposure
# [6] = rapid (within 24 h) and sustained (up to 96 h), vs vehicle (DMSO)
structure (smiles),measurement,setting,value
O=C(NCCCCc1ccncc1)c1cc(-c2ccco2)on1 [ECU],Cytokine-induced decrease in TEER,T84 cell monolayers [1],prevents cytokine-induced disruption; also recorded: markedly attenuated
same,Cytokine-induced increase in transepithelial FITC-dextran flux,T84 cell monolayers [1],prevents cytokine-induced disruption; also recorded: markedly attenuated
same,Expression of signaling molecules (pro-migratory signaling),T84 cell monolayers [2],activation of pro-migratory signaling events
same,Transepithelial flux of FITC-dextran,[3]; [5],significantly inhibited FITC-dextran flux
same,Transepithelial electrical resistance (TEER),"[3]; up to 96 h, vs vehicle (DMSO)",increase in TEER
same,Transepithelial flux of FITC-dextran,"T84 cell monolayers [4]; at the end of the drug exposure, T84",significantly inhibited FITC-dextran flux
same,Transepithelial electrical resistance (TEER),T84 cell monolayers [4]; [6],increase in TEER
same,Transepithelial flux of FITC-dextran,SK-0015 cell monolayers; [5],significantly inhibited FITC-dextran flux
same,Transepithelial electrical resistance (TEER),SK-0015 cell monolayers; [6],increase in TEER
